From patent US20050180972A1, “Anti-CD20 antibody-drug conjugates for the treatment of cancer and immune disorders” (priority 2002, published 2005)
Like-named read-outs stand apart in the source and are kept apart here. Square brackets hold non-standard residues; d marks the D form. Peptide text beside a SMILES is read from it. * marks the point of attachment. Dolaproine = CO[C@@H]([C@@H]1CCCN1)[C@@H](C)C(=O)O; Dil = CC[C@H](C)[C@H](NC)[C@@H](CC(=O)O)OC; X1 = C[C@@H](N*)[C@@H](O)c1ccccc1; NMeV = CN[C@H](C(=O)O)C(C)C

Legend:
[1] = test system: Daudi, Ramos, Raji and Karpas 299 cells; assay: Relative potency of unconjugated drugs versus doxorubicin across cell lines; type: cell-based, human
Method: (§1) Cytotoxicity assays. Cytotoxicity was measured by Alamar Blue (Biosource International) dye reduction assay according to manufacturers directions (Nakayama et al. Journal Of Immunological Methods 1997; 204:205-208). Briefly, a 40% solution (w/v) of Alamar Blue was freshly prepared in complete media just prior to adding to cultures. The Alamar Blue solution was added at cell densities of 10^5 cells/ml for the Ramos, Raji, and Karpas cell lines, and at a cell density of 4×10^5 cells/ml for the Daudi cell line. After 92 h following drug exposure. Alamar Blue solution was added to cells to constitute 10% culture volume. The cells were incubated for 4 h and dye reduction measured on a Fusion HT fluorescent plate reader (Packard Instruments, Meriden, Conn.).
(§2) Cell sensitivity to unconjugated drugs. The cells were initially evaluated for relative sensitivity to doxorubicin and MMAE. Cells were exposed to drugs for 2 h, washed, replated in fresh media and incubated for an additional 92 h. Four h. prior to harvest, cells were incubated with Alamar Blue, a reducible dye that provides readout of cell viability (Nakayarna et al., 1997).

Ramos cells [2] = assay: Alamar Blue cytotoxicity assay, Ramos cells; type: cell-based, human
Method: as §1, §2
(§3) Sensitivity of cells to ADCs. […] As described above, 4 h prior to harvest, cells were incubated with Alamar Blue and cell viability assessed.

Raji cells = assay: Alamar Blue cytotoxicity assay, Raji cells; type: cell-based, human
Method: as §1, §2, §3

Daudi cells = assay: Alamar Blue cytotoxicity assay, Daudi cells; type: cell-based, human
Method: as §1, §2, §3

Karpas 299 cells = assay: Alamar Blue cytotoxicity assay, CD20-negative Karpas 299 cells; type: cell-based, human
Method: as §1, §2, §3

Ramos cells [3] = assay: Confocal microscopy for mAb/ADC trafficking; settings: 5 ug/ml, 37 C, 1, 4 and 24 h
Source text: Microscopy for mAb/ ADC trafficking. […] At the designated times cells were harvested by centrifugation, fixed and permeabilized by paraformaldehyde/saponin (Cytofix/Cytoperm™ Buffer, BD PharMingen, San Diego, Calif.). After washing with the Perm/Wash™ buffer (BD PharMingen) and blocking with goat IgG, cells were stained with a goat anti-human IgG Fc_specific FITC conjugate (Jackson ImmunoResearch Laboratories, Inc., West Grove, Pa.). The localization of fluorescence signals was then visualized using a Deltavision confocal fluorescence microscope equipped with digital analysis software.
Internalization of the mAb-drug conjugate.

Ramos NHL cells = assay: Subcutaneous Ramos NHL xenograft model; type: in vivo, SCID mice; settings: intraperitoneal, every 4 days for 3 injections, 3 mg/kg
Method: For the localized non Hodgkin's lymphoma model, 2×10^6 Ramos NHL cells were implanted into the right flank of SCID mice. […] Treatment consisted of intraperitoneal injections of mAb or ADC every 4 days for 3 injections. Tumor size was determined using the formula (L×W^2)/2.
SCID mice were implanted with 5×10^6 Ramos cells into the flank and the tumor size in each group of 5 animals was allowed to progress to an average size of 100 mm^3 before therapy with mAb or ADCs was initiated. Treatment consisted of intraperitoneal injections of mAb or ADC every 4 days for 3 injections using 1 and 3 mg/kg/injection.

CD20-positive cells = assay: Cytotoxicity of ADCs, summary statement; type: cell-based, human; settings: following brief exposure
Method: as §1, §3

Ramos cells [4] = assay: Induction of apoptosis, Annexin V-FITC / propidium iodide staining; settings: 5 μg/ml, after 24 hr of incubation
Method: Selective induction of Apoptosis. […] At the designated times cells were removed from cultures and stained with Annexin V-FITC and propidium iodide (PI) as described in Materials and Methods. The range of apoptotic cells (Annexin V^+/PI^−) and of dead cells (Annexin V^+/PI^+) was determined by flow cytometric analysis of each population.
Induction of Apoptosis. […] At designated time points cells were removed from cultures and the degrees of apoptosis and cell death were determined by Annexin V binding to the cell surface and loss of propidium iodide (PI) inclusion respectively (FIG. 5).

[5] = ADC, 2 h binding, washed, additional 92 h, Raji
[6] = ADC, 2 h binding, washed, additional 92 h, Daudi
[7] = ADC, 2 h binding, washed, additional 92 h, Karpas

How did the “times more potent than doxorubicin” value [1] turn out when `CC[C@H](C)[C@@H]([C@@H](CC(=O)N1CCC[C@H]1[C@H](OC)[C@@H](C)C(=O)N[C@H](C)[C@@H](O)c1ccccc1)OC)N(C)C(=O)[C@@H](NC(=O)[C@H](C(C)C)N(C)C)C(C)C` [Auristatin E] was run?
The value was over 50 times.

Which IC50 (Ramos cells [2]; Homo sapiens, unconjugated drug, 2 h exposure, washed, additional 92 h, Ramos (CD20+), read-out: IC50) does the source give for `COc1cccc2c1C(=O)c1c(O)c3c(c(O)c1C2=O)C[C@@](O)(C(=O)CO)C[C@@H]3O[C@H]1C[C@H](N)[C@H](O)[C@H](C)O1` [Doxorubicin, doxorubicin, reference compound] here?
The IC50 was 225 nM.

And the IC50 (Raji cells; Homo sapiens, unconjugated drug, 2 h exposure, washed, additional 92 h, Raji (CD20+), read-out: IC50)?
The IC50 was 200 nM.

What about the IC50 (Daudi cells; Homo sapiens, unconjugated drug, 2 h exposure, washed, additional 92 h, Daudi (CD20+), read-out: IC50) of the same compound?
Its IC50 is 140 nM.

What about the IC50 (Karpas 299 cells; Homo sapiens, KARPAS-299, unconjugated drug, 2 h exposure, washed, additional 92 h, Karpas (CD20-), read-out: IC50) of the same compound?
The IC50 was 650 nM.

For `CC[C@H](C)[C@@H]([C@@H](CC(=O)N1CCC[C@H]1[C@H](OC)[C@@H](C)C(=O)N[C@H](C)[C@@H](O)c1ccccc1)OC)N(C)C(=O)[C@@H](NC(=O)[C@@H](NC)C(C)C)C(C)C` [MMAE, monomethyl Auristatin E] (H-[NMeV]V[Dil][Dolaproine]-X1), which IC50 (Ramos cells [2]; Homo sapiens, Ramos) is on record?
The IC50 was 1 nM.

And the “Activity Ratio MMAE/Doxorubicin” value (Ramos cells [2]; Ramos (CD20+))?
The value was 225.0.

What about the IC50 (Raji cells; Homo sapiens, Raji) of the same compound?
Its IC50 is 3.5 nM.

What about the “Activity Ratio MMAE/Doxorubicin” value (Raji cells; Raji (CD20+)) of the same compound?
The value was 57.1.

And the “Activity Ratio MMAE/Doxorubicin” value (Daudi cells; Daudi (CD20+))?
The value was 215.4.

What about the IC50 (Daudi cells; Homo sapiens, Daudi) of the same compound?
Its IC50 is 0.65 nM.

And the IC50 (Karpas 299 cells; Homo sapiens, KARPAS-299)?
Its IC50 is 3 nM.

What about the “Activity Ratio MMAE/Doxorubicin” value (Karpas 299 cells; Karpas (CD20-)) of the same compound?
Its value is 216.7.

Rituxan-vcDox [reference compound] was tested. Which IC50 (Ramos cells [2]; ADC, 2 h binding, washed, additional 92 h, Ramos) did it give?
Its IC50 is over 50 µg/mL.

And the IC50 (Raji cells; [5])?
The IC50 was over 50 µg/mL.

What about the “toxicity at the highest levels tested” value (Raji cells; Raji cells, up to 50 ug/ml) of the same compound?
Its value is “did not affect significant toxicity”.

What about the IC50 (Daudi cells; [6]) of the same compound?
The IC50 was over 50 µg/mL.

And the “cellular localization (equatorial section)” value (Ramos cells [3])?
Its value is “remained primarily on the surface”.

And the IC50 (Karpas 299 cells; [7])?
The IC50 was over 50 µg/mL.

Which results are given for “Rituximab-valine-citrulline-monomethyl Auristatin E [Rituxan-vcMMAE]”?
IC50 (Ramos cells [2]; ADC on Ramos cells (FIG. 4B)): 0.045 µg/mL; IC50 (Raji cells; ADC on Raji cells (FIG. 4A)): 1.4 µg/mL; IC50 (Raji cells; [5]): 1.5 µg/mL; IC50 (Daudi cells; [6]): 2 µg/mL; cellular localization (equatorial section) (Ramos cells [3]): localized to the cell interior within 4 h; delay in tumor growth (Ramos NHL cells): significant delay in tumor growth; IC50 (CD20-positive cells): 0.05 µg/mL; percentage of apoptotic cells (Ramos cells [4]): 19%; percentage of dead cells (Ramos cells [4]): 60%; IC50 (Karpas 299 cells; [7]): >50 µg/mL
